# Measurements taken from ChEMBL document CHEMBL2203009, “Synthesis of isoindole and benzoisoindole derivatives of teicoplanin pseudoaglycon with remarkable antibacterial and antiviral activities” (Bioorg Med Chem Lett, 2012).
# Experiments:
# [1] = test system: Staphylococcus epidermidis; experiment: Antimicrobial activity against Staphylococcus epidermidis ATCC 35984 biofilms; type: functional
# [2] = Toxicity in HEL cells assessed as induction of cell morphology changes; type: cell-based; conditions: human
# Human alphaherpesvirus 2 = experiment: Antiviral activity against HSV2 G infected in HEL cells assessed as inhibition of virus-induced cytopathic effect; type: functional, organism-based; conditions: Human alphaherpesvirus 2, strain G
# Influenza A virus = experiment: Antiviral activity against Influenza A virus (A/Puerto Rico/8/1934(H1N1)) H1N1 infected in MDCK cells assessed as inhibition of virus-induced cytopathic effect; type: functional, organism-based
# Enterococcus faecalis [3] = experiment: Antimicrobial activity against Enterococcus faecalis ATCC 29212; type: functional
# [4] = Toxicity in MDCK cells assessed as induction of cell morphology changes; type: cell-based, Canis lupus familiaris; conditions: dog
# Enterococcus faecalis [5] = experiment: Antimicrobial activity against Enterococcus faecalis ATCC 51299 over-expressing vanB; type: functional
# Enterococcus faecalis [6] = experiment: Antimicrobial activity against Enterococcus faecalis 15376 over-expressing vanA; type: functional
# Human alphaherpesvirus 1 [7] = experiment: Antiviral activity against HSV1 KOS infected in HEL cells assessed as inhibition of virus-induced cytopathic effect; type: functional, organism-based; conditions: Human alphaherpesvirus 1, KOS
# [8] = test system: Vesicular stomatitis virus; experiment: Antiviral activity against Vesicular stomatitis virus infected in HEL cells assessed as inhibition of virus-induced cytopathic effect; type: functional, organism-based
# H3N2 subtype = experiment: Antiviral activity against Influenza A virus (A/Hong Kong/7/1987(H3N2)) […] infected in MDCK cells assessed as inhibition of virus-induced cytopathic effect; type: functional, organism-based
# Influenza B virus = experiment: Antiviral activity against Influenza B virus (B/Hong Kong/05/1972) […] infected in MDCK cells assessed as inhibition of virus-induced cytopathic effect; type: functional, cell-based; conditions: B/Hong Kong/05/1972, MDCK
# Bacillus subtilis = experiment: Antimicrobial activity against Bacillus subtilis ATCC 6633; type: functional
# Staphylococcus aureus [9] = experiment: Antimicrobial activity against methicillin-sensitive Staphylococcus aureus ATCC 29213; type: functional
# [10] = test system: Staphylococcus epidermidis; experiment: Antimicrobial activity against Staphylococcus epidermidis over-expressing MecA; type: functional
# Vaccinia virus = experiment: Antiviral activity against Vaccinia virus infected in HEL cells assessed as inhibition of virus-induced cytopathic effect; type: functional, organism-based; conditions: Orthopoxvirus vaccinia
# Staphylococcus aureus [11] = experiment: Antimicrobial activity against methicillin-resistant Staphylococcus aureus ATCC 33591; type: functional
# Human alphaherpesvirus 1 [12] = experiment: Antiviral activity against thymidine kinase deficient and acyclovir-resistant HSV1 KOS infected in HEL cells assessed as inhibition of virus-induced cytopathic effect; type: functional, organism-based; conditions: Human alphaherpesvirus 1, KOS
SMILES,MBC [1],MIC [1],MCC [2],EC50 (Human alphaherpesvirus 2),EC50 (Influenza A virus),MBC (Enterococcus faecalis [3]),MIC (Enterococcus faecalis [3]),MCC [4],MBC (Enterococcus faecalis [5]),MIC (Enterococcus faecalis [5]),MBC (Enterococcus faecalis [6]),MIC (Enterococcus faecalis [6]),EC50 (Human alphaherpesvirus 1 [7]),EC50 [8],EC50 (H3N2 subtype),EC50 (Influenza B virus),MBC (Bacillus subtilis),MIC (Bacillus subtilis),EC50 (Vaccinia virus),EC50 (Human alphaherpesvirus 1 [12]),further results
CC(=O)N[C@@H]1[C@@H](OC(C)=O)[C@H](OC(C)=O)[C@@H](COC(C)=O)O[C@H]1Sc1c2ccccc2cn1[C@H]1C(=O)N[C@@H]2Cc3ccc(c(Cl)c3)Oc3cc4cc(c3O)Oc3ccc(cc3Cl)[C@@H](O[C@@H]3O[C@H](CO)[C@@H](O)[C@H](O)[C@H]3NC(C)=O)[C@@H]3NC(=O)[C@H](NC(=O)[C@@H]4NC(=O)[C@@H](NC2=O)c2cc(O)cc(c2)Oc2cc1ccc2O)c1ccc(O)c(c1)-c1c(O)cc(O)cc1[C@@H](C(=O)O)NC3=O,2 µg/mL,0.0075 µg/mL,> 100 µM,40 µM,> 100 µM,256 µg/mL,2 µg/mL,20 µM,256 µg/mL,2 µg/mL,256 µg/mL,0.0625 µg/mL,40 µM,> 100 µM,> 100 µM,> 100 µM,1 µg/mL,0.25 µg/mL,45 µM,45 µM,MBC (Staphylococcus aureus [9]): 1 µg/mL; MIC (Staphylococcus aureus [9]): 0.125 µg/mL; MBC [10]: 32 µg/mL; MIC [10]: 2 µg/mL; MBC (Staphylococcus aureus [11]): 2 µg/mL; MIC (Staphylococcus aureus [11]): 0.0625 µg/mL
CC(=O)N[C@H]1[C@H](O[C@@H]2c3ccc(c(Cl)c3)Oc3cc4cc(c3O)Oc3ccc(cc3Cl)C[C@H]3NC(=O)[C@H](N)c5ccc(O)c(c5)Oc5cc(O)cc(c5)[C@H](NC3=O)C(=O)N[C@H]4C(=O)N[C@H]3C(=O)N[C@@H]2C(=O)N[C@H](C(=O)O)c2cc(O)cc(O)c2-c2cc3ccc2O)O[C@H](CO)[C@@H](O)[C@@H]1O,–,–,> 100 µM,> 100 µM,23 µM,–,–,≥ 100 µM,–,–,–,–,> 100 µM,> 100 µM,17 µM,> 100 µM,–,–,> 100 µM,> 100 µM,–
CC(=O)N[C@H]1[C@H](O[C@@H]2c3ccc(c(Cl)c3)Oc3cc4cc(c3O)Oc3ccc(cc3Cl)C[C@H]3NC(=O)[C@H](n5cc6cc7ccccc7cc6c5Sc5nc6ccccc6s5)c5ccc(O)c(c5)Oc5cc(O)cc(c5)[C@H](NC3=O)C(=O)N[C@H]4C(=O)N[C@H]3C(=O)N[C@@H]2C(=O)N[C@H](C(=O)O)c2cc(O)cc(O)c2-c2cc3ccc2O)O[C@H](CO)[C@@H](O)[C@@H]1O,0.5 µg/mL,0.015 µg/mL,> 100 µM,> 100 µM,< 4.9 µM,256 µg/mL,0.0313 µg/mL,20 µM,256 µg/mL,1 µg/mL,32 µg/mL,0.0313 µg/mL,> 100 µM,> 100 µM,1.6 µM,> 100 µM,4 µg/mL,0.0313 µg/mL,> 100 µM,> 100 µM,MBC (Staphylococcus aureus [9]): 0.5 µg/mL; MIC (Staphylococcus aureus [9]): 0.015 µg/mL; MBC [10]: 256 µg/mL; MIC [10]: 0.0313 µg/mL; MBC (Staphylococcus aureus [11]): 4 µg/mL; MIC (Staphylococcus aureus [11]): 0.015 µg/mL
CC(=O)N[C@H]1[C@H](O[C@@H]2c3ccc(c(Cl)c3)Oc3cc4cc(c3O)Oc3ccc(cc3Cl)C[C@H]3NC(=O)[C@H](n5cc6ccccc6c5S[C@@H]5O[C@H](CO)[C@@H](O)[C@H](O)[C@H]5O)c5ccc(O)c(c5)Oc5cc(O)cc(c5)[C@H](NC3=O)C(=O)N[C@H]4C(=O)N[C@H]3C(=O)N[C@@H]2C(=O)N[C@H](C(=O)O)c2cc(O)cc(O)c2-c2cc3ccc2O)O[C@H](CO)[C@@H](O)[C@@H]1O,0.5 µg/mL,0.0075 µg/mL,≥ 100 µM,40 µM,> 100 µM,256 µg/mL,2 µg/mL,< 0.8 µM,256 µg/mL,1 µg/mL,256 µg/mL,0.0625 µg/mL,45 µM,52 µM,> 100 µM,> 100 µM,1 µg/mL,0.125 µg/mL,45 µM,≥ 45 µM,MBC (Staphylococcus aureus [9]): 1 µg/mL; MIC (Staphylococcus aureus [9]): 0.0313 µg/mL; MBC [10]: 32 µg/mL; MIC [10]: 0.015 µg/mL; MBC (Staphylococcus aureus [11]): 1 µg/mL; MIC (Staphylococcus aureus [11]): 0.0075 µg/mL
CC(=O)N[C@H]1[C@H](O[C@@H]2c3ccc(c(Cl)c3)Oc3cc4cc(c3O)Oc3ccc(cc3Cl)C[C@H]3NC(=O)[C@H](n5cc6ccccc6c5S[C@@H]5O[C@H](COC(C)=O)[C@@H](OC(C)=O)[C@H](OC(C)=O)[C@H]5OC(C)=O)c5ccc(O)c(c5)Oc5cc(O)cc(c5)[C@H](NC3=O)C(=O)N[C@H]4C(=O)N[C@H]3C(=O)N[C@@H]2C(=O)N[C@H](C(=O)O)c2cc(O)cc(O)c2-c2cc3ccc2O)O[C@H](CO)[C@@H](O)[C@@H]1O,8 µg/mL,2 µg/mL,≥ 100 µM,11 µM,> 100 µM,256 µg/mL,1 µg/mL,20 µM,256 µg/mL,4 µg/mL,256 µg/mL,4 µg/mL,40 µM,48 µM,> 100 µM,> 100 µM,64 µg/mL,0.25 µg/mL,45 µM,40 µM,MBC (Staphylococcus aureus [9]): 16 µg/mL; MIC (Staphylococcus aureus [9]): 0.0625 µg/mL; MBC [10]: 256 µg/mL; MIC [10]: 2 µg/mL; MBC (Staphylococcus aureus [11]): 128 µg/mL; MIC (Staphylococcus aureus [11]): 0.0313 µg/mL
CC(=O)N[C@@H]1[C@@H](O)[C@H](O)[C@@H](CO)O[C@H]1Sc1c2ccccc2cn1[C@H]1C(=O)N[C@@H]2Cc3ccc(c(Cl)c3)Oc3cc4cc(c3O)Oc3ccc(cc3Cl)[C@@H](O[C@@H]3O[C@H](CO)[C@@H](O)[C@H](O)[C@H]3NC(C)=O)[C@@H]3NC(=O)[C@H](NC(=O)[C@@H]4NC(=O)[C@@H](NC2=O)c2cc(O)cc(c2)Oc2cc1ccc2O)c1ccc(O)c(c1)-c1c(O)cc(O)cc1[C@@H](C(=O)O)NC3=O,0.5 µg/mL,0.0313 µg/mL,≥ 100 µM,45 µM,> 100 µM,256 µg/mL,1 µg/mL,< 0.8 µM,256 µg/mL,4 µg/mL,256 µg/mL,1 µg/mL,47 µM,52 µM,> 100 µM,> 100 µM,1 µg/mL,0.125 µg/mL,47 µM,45 µM,MBC (Staphylococcus aureus [9]): 1 µg/mL; MIC (Staphylococcus aureus [9]): 0.5 µg/mL; MBC [10]: 64 µg/mL; MIC [10]: 0.0075 µg/mL; MBC (Staphylococcus aureus [11]): 1 µg/mL; MIC (Staphylococcus aureus [11]): 1 µg/mL
CC(=O)N[C@@H]1[C@H](Oc2c3cc4cc2Oc2ccc(cc2Cl)[C@@H](O[C@@H]2O[C@@H](CO)[C@@H](O)[C@H](O)[C@@H]2NC(C)=O)[C@@H]2NC(=O)[C@H](NC(=O)[C@@H]4NC(=O)[C@H]4NC(=O)[C@@H](Cc5ccc(c(Cl)c5)O3)NC(=O)[C@H](N)c3ccc(O)c(c3)Oc3cc(O)cc4c3)c3ccc(O)c(c3)-c3c(O[C@H]4O[C@H](CO)[C@@H](O)[C@@H](O)[C@@H]4O)cc(O)cc3[C@@H](C(=O)O)NC2=O)O[C@@H](CO)[C@@H](O)[C@@H]1O,16 µg/mL,2 µg/mL,–,–,–,64 µg/mL,2 µg/mL,–,256 µg/mL,4 µg/mL,256 µg/mL,256 µg/mL,–,–,–,–,16 µg/mL,0.5 µg/mL,–,–,MBC (Staphylococcus aureus [9]): 2 µg/mL; MIC (Staphylococcus aureus [9]): 0.5 µg/mL; MBC [10]: 32 µg/mL; MIC [10]: 8 µg/mL; MBC (Staphylococcus aureus [11]): 2 µg/mL; MIC (Staphylococcus aureus [11]): 0.5 µg/mL
Nc1nc2c(ncn2COCCO)c(=O)[nH]1 [ACYCLOVIR],–,–,> 250 µM,0.14 µM,–,–,–,–,–,–,–,–,0.14 µM,> 250 µM,–,–,–,–,≥ 250 µM,44 µM,–
NC12CC3CC(CC(C3)C1)C2 [AMANTADINE],–,–,–,–,212 µM,–,–,≥ 500 µM,–,–,–,–,–,–,0.45 µM,> 500 µM,–,–,–,–,–
O=c1[nH]c(=O)n([C@H]2C[C@H](O)[C@@H](CO)O2)cc1/C=C/Br [BRIVUDINE],–,–,> 250 µM,198 µM,–,–,–,–,–,–,–,–,0.024 µM,> 250 µM,–,–,–,–,10 µM,50 µM,–
Nc1ccn(C[C@@H](CO)OCP(=O)(O)O)c(=O)n1 [CIDOFOVIR],–,–,> 250 µM,0.9 µM,–,–,–,–,–,–,–,–,1.5 µM,> 250 µM,–,–,–,–,21 µM,1.5 µM,–
Nc1nc2c(ncn2COC(CO)CO)c(=O)[nH]1 [GANCICLOVIR],–,–,> 100 µM,0.013 µM,–,–,–,–,–,–,–,–,0.015 µM,> 100 µM,–,–,–,–,> 100 µM,4 µM,–
NC(=O)c1ncn([C@@H]2O[C@H](CO)[C@@H](O)[C@H]2O)n1 [RIBAVIRIN],–,–,–,–,6.1 µM,–,–,–,–,–,–,–,–,–,6 µM,4.6 µM,–,–,–,–,–
CC(N)C12CC3CC(CC(C3)C1)C2 (centres undefined) [RIMANTADINE],–,–,–,–,14 µM,–,–,–,–,–,–,–,–,–,0.051 µM,> 500 µM,–,–,–,–,–
CC(=O)N[C@H]1[C@H]([C@H](O)[C@H](O)CO)OC(C(=O)O)=C[C@@H]1NC(=N)N [ZANAMIVIR],–,–,–,–,1.6 µM,–,–,> 100 µM,–,–,–,–,–,–,4.8 µM,23 µM,–,–,–,–,–
